# Reference: ChEMBL document CHEMBL1201862, “PubChem BioAssay data set” (2004)
# Calls of active or inactive are those of the source.
# Assays:
# cells [1] = format: functional, cell-based
# [2] = molecular target: T1, Trace amine-associated receptor 1 (Homo sapiens, UniProt Q96RJ0); test: Fluorescence-based cell-based high throughput dose response assay to identify agonists of the human trace amine associated receptor 1 (TAAR1).; format: functional
# T1 sequence (Q96RJ0 whole entry): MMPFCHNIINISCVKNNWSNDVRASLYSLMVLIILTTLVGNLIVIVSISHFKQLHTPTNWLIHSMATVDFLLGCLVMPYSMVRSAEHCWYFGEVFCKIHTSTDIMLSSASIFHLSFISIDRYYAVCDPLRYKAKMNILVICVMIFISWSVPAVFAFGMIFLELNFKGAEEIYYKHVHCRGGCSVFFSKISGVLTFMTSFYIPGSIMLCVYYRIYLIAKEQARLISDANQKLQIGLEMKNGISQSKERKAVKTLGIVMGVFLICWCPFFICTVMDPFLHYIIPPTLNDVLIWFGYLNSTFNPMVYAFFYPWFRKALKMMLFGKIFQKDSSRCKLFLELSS
# [3] = molecular target: Induced myeloid leukemia cell differentiation protein Mcl-1 (Homo sapiens, UniProt Q07820); format: functional
# Sequence of Induced myeloid leukemia cell differentiation protein Mcl-1 (Q07820 whole entry): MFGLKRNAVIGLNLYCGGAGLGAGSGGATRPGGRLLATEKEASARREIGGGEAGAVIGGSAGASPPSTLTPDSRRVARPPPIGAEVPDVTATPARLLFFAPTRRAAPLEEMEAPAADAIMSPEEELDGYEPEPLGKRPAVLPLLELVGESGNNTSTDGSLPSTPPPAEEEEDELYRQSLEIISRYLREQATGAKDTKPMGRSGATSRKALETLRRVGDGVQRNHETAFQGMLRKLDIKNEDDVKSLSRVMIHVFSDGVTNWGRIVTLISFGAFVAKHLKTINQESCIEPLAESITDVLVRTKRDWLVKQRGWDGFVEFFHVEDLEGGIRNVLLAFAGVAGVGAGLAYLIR
# cells [4] = format: functional, cell-based; remark: listed apart in the source
# [5] = molecular target: T1, Trace amine-associated receptor 1; test: Counterscreen for agonists of the human trace amine associated receptor 1 (hTAAR1): Fluorescence-based cell-based high throughput dose response assay to identify hTAAR1 agonist that also desensitize TAAR1 receptor response.; format: functional
# Streptococcus = test: Group A Streptococcus viability loss, dose response, counter-screen for streptokinase expression inhibitor project, luminescence, BacTiterGlo (AID 1915); format: functional, organism-based;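 also: potency for reduction of bacterial viability or growth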
# [6] = test system: Streptococcus sp. 'group A'; test: growth inhibition of control SK(-) GAS strain, dose response, counter-screen for streptokinase expression inhibitor project, luminescence, kanamycin, BacTiterGlo, confirmation (AID 1900); format: functional, organism-based
# Albumin = Albumin (Bos taurus, UniProt P02769); test: Counterscreen for inhibitors of T-cell receptor (TCR)-CD3 interaction: Fluorescence-based biochemical high throughput dose response assay to identify inhibitors of T-cell receptor (TCR)-CD3 interaction using a TAMRA-labeled BSA probe.; format: functional
# Sequence of Albumin (P02769 whole entry): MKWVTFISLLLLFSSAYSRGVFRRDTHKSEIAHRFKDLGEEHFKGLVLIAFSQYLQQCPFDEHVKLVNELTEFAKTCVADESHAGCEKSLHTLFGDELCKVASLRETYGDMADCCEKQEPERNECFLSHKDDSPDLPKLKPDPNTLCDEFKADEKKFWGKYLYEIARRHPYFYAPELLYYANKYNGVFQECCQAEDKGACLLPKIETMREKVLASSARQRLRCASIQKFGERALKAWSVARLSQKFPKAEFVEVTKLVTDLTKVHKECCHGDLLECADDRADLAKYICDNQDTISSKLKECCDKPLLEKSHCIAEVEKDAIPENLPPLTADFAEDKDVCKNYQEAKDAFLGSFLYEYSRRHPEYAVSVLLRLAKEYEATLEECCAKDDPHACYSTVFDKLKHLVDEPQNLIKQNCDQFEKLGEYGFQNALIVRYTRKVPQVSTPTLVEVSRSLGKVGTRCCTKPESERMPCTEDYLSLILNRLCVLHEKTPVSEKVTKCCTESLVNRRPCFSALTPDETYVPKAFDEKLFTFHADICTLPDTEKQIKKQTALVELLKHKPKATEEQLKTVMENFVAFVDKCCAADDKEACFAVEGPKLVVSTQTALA
# [7] = molecular target: T2, Nuclear receptor subfamily 0 group B member 1 (Homo sapiens, UniProt P51843); format: functional, cell-based;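 also: HEK293T cells transfected with SF-1 and DAX-1 plus StAR promoter luciferase reporter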
# T2 sequence (P51843 whole entry): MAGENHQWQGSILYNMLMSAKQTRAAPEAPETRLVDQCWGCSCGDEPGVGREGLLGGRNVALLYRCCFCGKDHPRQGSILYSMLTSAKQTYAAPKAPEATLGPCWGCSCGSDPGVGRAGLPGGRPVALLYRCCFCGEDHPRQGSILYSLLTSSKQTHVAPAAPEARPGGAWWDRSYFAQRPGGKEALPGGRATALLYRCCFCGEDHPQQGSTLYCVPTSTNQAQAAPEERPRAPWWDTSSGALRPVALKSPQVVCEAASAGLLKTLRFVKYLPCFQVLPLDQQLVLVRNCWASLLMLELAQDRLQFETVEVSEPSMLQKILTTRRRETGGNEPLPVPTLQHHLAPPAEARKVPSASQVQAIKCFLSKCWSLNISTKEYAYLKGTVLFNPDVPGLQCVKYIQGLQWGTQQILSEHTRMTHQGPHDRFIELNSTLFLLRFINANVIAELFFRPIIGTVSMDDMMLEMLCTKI
# [8] = Luminescence Cell-Based Dose Confirmation HTS to Identify Activators of 5'UTR Stem-Loop Driven Alpha-Synuclein mRNA Translation in H4 Neuroglioblastoma Cells. [Related pubchem assays: 1829 (Project Summary), 1814 (Primary HTS)]; format: functional
# [9] = molecular target: T3, Endoribonuclease toxin MazF (Escherichia coli K-12, UniProt P0AE70); test: MazF toxin RNase activators, dose response, biochemical, fluorescence, single-stranded RNA substrate, uHTS hits (AID 588481); format: functional
# T3 sequence (P0AE70 whole entry): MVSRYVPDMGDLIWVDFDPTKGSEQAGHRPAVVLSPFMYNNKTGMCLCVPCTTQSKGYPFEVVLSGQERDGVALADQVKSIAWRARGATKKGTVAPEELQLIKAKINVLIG
# [10] = Luminescence Cell-Based Dose Response HTS to Identify Activators of Luciferase Translation or Activity in H4 […] Cells. [Related pubchem assays: 1829 (Project Summary), 1814 (Primary HTS)]; format: functional
# [11] = molecular target: T3, Endoribonuclease toxin MazF; test: fluorescent RNA oligo signal without MazF, dose response, counter-screen for MazEF activator project, biochemical, fluorescence, single-stranded RNase substrate (AID 588502); format: functional
# H4 = test: Luminescence Cell-Based Dose Response HTS to Identify Activators of 5'UTR Stem-Loop Driven Prion Protein mRNA Translation in H4 Neuroglioblastoma Cells. [Related pubchem assays: 1829 (Project Summary), 1814 (Primary HTS)]; format: functional; settings: Homo sapiens
# cells [12] = format: functional, cell-based; remark: listed apart in the source
# NS3 = NS3 (Hepatitis C virus, UniProt A3EZJ3); test: PubChem AID 2173; design: species or system Hepacivirus hominis
# Sequence of NS3 (A3EZJ3 whole entry): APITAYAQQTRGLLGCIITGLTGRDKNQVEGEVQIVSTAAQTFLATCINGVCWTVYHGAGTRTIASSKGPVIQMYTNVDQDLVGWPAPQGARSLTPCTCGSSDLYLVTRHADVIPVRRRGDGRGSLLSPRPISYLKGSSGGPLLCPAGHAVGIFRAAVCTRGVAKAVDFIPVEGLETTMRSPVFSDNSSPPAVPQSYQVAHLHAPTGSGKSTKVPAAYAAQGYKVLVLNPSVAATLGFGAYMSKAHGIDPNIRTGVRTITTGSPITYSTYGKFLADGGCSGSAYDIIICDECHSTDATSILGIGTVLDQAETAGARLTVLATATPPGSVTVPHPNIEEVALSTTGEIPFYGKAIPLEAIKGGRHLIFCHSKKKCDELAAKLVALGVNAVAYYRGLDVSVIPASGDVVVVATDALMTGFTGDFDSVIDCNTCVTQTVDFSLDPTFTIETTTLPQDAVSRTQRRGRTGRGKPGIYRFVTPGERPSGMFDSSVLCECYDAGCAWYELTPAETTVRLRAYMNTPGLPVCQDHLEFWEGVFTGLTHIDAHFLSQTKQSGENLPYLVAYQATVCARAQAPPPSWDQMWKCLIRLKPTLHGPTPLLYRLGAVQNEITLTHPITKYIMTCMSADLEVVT
# [13] = molecular target: T4, Probable nicotinate-nucleotide adenylyltransferase (Staphylococcus aureus (strain N315), UniProt P65502); format: functional, Staphylococcus aureus subsp. aureus N315; settings: read-out: IC50_Mean;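 as to IC50 Mean: confirmatory dose-response retesting of NadD inhibitor hits first found in an ultra-high-throughput screen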
# T4 sequence (P65502 whole entry): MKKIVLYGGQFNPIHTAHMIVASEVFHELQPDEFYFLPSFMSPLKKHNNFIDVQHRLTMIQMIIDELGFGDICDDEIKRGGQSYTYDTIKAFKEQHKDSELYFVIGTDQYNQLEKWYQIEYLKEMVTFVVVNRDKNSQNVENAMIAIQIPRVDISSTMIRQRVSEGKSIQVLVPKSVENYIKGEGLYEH
# [14] = molecular target: T5, Rac GTPase-activating protein 1 (Homo sapiens, UniProt Q9H0H5); test: MgcRacGAP GTPase-activating activity inhibitors, confirmation, biochemical, ADP Hunter fluorescence, primary and confirmatory (AID 624330); format: functional
# T5 sequence (Q9H0H5 whole entry): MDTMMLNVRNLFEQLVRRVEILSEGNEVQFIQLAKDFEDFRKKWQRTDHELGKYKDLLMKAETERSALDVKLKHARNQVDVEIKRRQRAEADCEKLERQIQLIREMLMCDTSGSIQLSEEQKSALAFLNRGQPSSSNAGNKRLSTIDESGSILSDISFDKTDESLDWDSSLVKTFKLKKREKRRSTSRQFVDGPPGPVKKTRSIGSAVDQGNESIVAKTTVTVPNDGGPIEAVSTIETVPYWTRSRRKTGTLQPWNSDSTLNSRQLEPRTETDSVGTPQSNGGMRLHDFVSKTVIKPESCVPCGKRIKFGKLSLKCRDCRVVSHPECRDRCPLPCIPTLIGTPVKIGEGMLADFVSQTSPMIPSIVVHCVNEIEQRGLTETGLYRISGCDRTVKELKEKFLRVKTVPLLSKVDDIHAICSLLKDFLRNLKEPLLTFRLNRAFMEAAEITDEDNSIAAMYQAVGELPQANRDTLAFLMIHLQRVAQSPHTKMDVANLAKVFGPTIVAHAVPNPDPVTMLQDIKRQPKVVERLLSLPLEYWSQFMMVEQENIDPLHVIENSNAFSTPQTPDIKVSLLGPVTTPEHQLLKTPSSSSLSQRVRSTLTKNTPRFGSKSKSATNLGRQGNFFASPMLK
# Genome polyprotein = Genome polyprotein (dengue virus type 2, UniProt P29990); test: Dengue-2 NS5 methyltransferase inhibitors, primary screen, biochemical, confirmation dose response (AID 588689); format: functional
# Sequence of Genome polyprotein (P29990 2492-3391 limits assumed): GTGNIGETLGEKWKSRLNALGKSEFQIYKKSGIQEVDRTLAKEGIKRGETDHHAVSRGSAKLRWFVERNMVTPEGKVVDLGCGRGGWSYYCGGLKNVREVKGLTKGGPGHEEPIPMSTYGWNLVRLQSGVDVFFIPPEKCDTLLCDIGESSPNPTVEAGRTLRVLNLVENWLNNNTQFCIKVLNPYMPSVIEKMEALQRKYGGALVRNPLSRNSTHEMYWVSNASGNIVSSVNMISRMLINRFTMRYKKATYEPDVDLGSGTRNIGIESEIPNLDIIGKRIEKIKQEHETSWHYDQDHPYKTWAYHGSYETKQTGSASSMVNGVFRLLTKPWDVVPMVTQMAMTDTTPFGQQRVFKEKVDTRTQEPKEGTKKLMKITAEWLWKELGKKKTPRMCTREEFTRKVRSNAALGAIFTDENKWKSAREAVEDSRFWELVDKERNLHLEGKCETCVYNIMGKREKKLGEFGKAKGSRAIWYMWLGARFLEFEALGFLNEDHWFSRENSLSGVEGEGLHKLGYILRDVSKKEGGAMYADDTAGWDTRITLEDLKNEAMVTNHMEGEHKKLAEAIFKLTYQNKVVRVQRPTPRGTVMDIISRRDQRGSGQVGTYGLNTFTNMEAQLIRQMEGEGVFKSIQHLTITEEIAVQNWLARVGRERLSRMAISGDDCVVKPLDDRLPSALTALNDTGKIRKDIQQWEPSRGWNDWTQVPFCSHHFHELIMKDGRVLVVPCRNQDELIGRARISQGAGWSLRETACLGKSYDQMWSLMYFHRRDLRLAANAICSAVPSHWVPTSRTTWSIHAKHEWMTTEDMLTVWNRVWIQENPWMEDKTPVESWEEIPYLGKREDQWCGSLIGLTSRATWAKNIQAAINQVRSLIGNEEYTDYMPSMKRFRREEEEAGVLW
# [15] = molecular target: T6, Heat shock factor protein 1 (Mus musculus, UniProt P38532); test: HSF1 potentiators in luciferase reporter cells, confirmation, cell-based, NIH3T3, luminescence, dose retest (AID 435004); format: functional;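 also: stress induced by proteasome inhibitor MG132 added 30 min after compound; luciferase reporter driven by HSF1 response element in NIH3T3 cells; actives raise luminescence as potentiators of the MG132 stress response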
# T6 sequence (P38532 whole entry): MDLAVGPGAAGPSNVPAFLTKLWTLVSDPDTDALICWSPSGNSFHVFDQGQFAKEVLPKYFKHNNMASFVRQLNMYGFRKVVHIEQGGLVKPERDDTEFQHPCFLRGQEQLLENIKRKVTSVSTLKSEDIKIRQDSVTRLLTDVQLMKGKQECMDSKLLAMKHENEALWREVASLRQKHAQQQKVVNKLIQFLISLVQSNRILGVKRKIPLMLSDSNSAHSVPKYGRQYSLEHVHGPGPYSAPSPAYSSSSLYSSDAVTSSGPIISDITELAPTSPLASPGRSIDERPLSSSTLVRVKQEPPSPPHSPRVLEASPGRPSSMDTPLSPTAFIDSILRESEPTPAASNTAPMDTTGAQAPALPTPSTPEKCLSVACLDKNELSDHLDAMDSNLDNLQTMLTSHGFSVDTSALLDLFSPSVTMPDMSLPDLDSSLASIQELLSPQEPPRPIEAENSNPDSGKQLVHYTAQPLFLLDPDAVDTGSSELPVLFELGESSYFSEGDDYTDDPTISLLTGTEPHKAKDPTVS
# [16] = molecular target: DNA (cytosine-5)-methyltransferase 1 (Homo sapiens, UniProt P26358); test: DNMT1 methyltransferase inhibitors, confirmation, biochemical, fluorescent molecular beacon (AID 602386); format: functional
# Sequence of DNA (cytosine-5)-methyltransferase 1 (P26358 whole entry, the tested form may be a part): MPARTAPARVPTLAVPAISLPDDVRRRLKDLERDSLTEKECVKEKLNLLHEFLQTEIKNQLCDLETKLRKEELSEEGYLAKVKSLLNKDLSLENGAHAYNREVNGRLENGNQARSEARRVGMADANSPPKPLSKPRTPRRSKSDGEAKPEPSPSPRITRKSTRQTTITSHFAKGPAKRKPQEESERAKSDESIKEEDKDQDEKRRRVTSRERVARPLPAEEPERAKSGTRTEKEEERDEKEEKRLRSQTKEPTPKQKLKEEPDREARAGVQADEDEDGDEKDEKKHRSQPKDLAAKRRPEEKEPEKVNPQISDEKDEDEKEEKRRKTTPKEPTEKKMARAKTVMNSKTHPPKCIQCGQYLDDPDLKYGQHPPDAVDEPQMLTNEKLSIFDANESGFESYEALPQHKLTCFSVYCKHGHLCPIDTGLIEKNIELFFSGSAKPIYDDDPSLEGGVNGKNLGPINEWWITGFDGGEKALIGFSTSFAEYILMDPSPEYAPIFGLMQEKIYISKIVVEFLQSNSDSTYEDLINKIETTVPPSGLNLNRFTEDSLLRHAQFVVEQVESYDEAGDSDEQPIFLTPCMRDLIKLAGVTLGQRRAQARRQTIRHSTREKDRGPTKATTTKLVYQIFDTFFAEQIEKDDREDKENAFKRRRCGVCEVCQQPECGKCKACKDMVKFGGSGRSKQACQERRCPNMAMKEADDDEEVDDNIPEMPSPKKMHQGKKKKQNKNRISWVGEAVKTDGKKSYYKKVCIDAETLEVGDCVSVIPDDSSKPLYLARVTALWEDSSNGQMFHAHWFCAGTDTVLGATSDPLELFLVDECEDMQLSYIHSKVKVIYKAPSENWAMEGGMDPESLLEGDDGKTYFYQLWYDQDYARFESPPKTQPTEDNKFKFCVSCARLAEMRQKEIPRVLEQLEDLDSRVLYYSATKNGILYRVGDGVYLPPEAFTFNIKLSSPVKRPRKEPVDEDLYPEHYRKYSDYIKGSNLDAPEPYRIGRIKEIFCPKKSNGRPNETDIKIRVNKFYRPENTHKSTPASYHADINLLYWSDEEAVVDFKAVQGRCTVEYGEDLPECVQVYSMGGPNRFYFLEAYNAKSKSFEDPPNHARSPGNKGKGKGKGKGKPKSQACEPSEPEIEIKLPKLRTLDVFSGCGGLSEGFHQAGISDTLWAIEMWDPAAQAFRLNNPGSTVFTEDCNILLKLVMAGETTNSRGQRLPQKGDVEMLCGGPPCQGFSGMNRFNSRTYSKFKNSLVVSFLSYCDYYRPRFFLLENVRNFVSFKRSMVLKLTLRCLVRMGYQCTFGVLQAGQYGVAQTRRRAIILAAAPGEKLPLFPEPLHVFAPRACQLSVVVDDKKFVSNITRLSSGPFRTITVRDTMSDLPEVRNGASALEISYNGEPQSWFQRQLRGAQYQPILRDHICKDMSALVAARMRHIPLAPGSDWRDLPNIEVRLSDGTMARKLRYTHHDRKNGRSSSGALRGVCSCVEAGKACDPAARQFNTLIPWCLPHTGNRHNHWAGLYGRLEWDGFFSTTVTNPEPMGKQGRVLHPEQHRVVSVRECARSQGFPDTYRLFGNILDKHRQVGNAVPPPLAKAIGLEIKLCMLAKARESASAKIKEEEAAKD
# [17] = molecular target: T7, Carboxy-terminal domain RNA polymerase II polypeptide A small phosphatase 1 (Homo sapiens, UniProt Q9GZU7); test: inhibitors of CTDSP1, concentration-response testing, biochemical assay, absorbance-based, actives from ultra-high-throughput screening (AID 540297); format: functional
# T7 sequence (Q9GZU7 whole entry): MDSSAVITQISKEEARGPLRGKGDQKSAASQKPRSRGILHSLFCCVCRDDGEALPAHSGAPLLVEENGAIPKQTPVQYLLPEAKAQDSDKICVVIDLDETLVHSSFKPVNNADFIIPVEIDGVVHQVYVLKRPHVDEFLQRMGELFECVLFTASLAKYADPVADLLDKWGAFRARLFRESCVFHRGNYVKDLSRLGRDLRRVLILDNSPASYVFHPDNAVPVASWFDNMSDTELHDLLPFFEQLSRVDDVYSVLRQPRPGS
# [18] = molecular target: T4, Probable nicotinate-nucleotide adenylyltransferase; format: functional, Staphylococcus aureus subsp. aureus N315
# [19] = molecular target: Glucose-6-phosphate 1-dehydrogenase (Homo sapiens, UniProt P11413); test: human G6PD enzyme inhibitors, dose response, selectivity assay for P. falciparum G6PD inhibitor project, biochemical, fluorescence (AID 504792); format: functional
# Sequence of Glucose-6-phosphate 1-dehydrogenase (P11413 whole entry): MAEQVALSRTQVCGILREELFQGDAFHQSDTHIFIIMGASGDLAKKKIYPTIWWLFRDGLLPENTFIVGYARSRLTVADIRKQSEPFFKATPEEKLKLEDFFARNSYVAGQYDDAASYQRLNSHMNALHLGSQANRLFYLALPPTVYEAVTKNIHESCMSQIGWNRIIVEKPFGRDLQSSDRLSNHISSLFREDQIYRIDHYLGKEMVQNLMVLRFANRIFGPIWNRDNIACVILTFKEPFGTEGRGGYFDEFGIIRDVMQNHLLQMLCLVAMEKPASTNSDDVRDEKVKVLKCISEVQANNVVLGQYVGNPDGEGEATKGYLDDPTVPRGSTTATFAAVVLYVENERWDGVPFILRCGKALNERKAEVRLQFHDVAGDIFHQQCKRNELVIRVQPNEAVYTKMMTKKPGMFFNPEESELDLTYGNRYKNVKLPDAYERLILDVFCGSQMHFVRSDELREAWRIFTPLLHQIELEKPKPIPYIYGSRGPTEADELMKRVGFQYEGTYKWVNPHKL
# [20] = molecular target: T8, Small ubiquitin-related modifier 1 (Homo sapiens, UniProt P63165); test: inhibitors of SUMO1 partner interactions, dose response, biochemical, FRET (AID 624383); format: functional; settings: read-out: IC50_Mean
# T8 sequence (P63165 whole entry): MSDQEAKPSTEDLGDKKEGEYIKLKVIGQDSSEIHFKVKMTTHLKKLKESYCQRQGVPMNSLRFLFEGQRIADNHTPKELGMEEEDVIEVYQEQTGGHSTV
# [21] = molecular target: T8, Small ubiquitin-related modifier 1; test: inhibitors of SUMO1 peptide binding, dose response, biochemical, fluorescence polarization, uHTS hits (AID 624382); format: functional; settings: read-out: IC50_Mean
# [22] = molecular target: T9, Sentrin-specific protease 8 (Homo sapiens, UniProt Q96LD8); format: functional
# T9 sequence (Q96LD8 whole entry): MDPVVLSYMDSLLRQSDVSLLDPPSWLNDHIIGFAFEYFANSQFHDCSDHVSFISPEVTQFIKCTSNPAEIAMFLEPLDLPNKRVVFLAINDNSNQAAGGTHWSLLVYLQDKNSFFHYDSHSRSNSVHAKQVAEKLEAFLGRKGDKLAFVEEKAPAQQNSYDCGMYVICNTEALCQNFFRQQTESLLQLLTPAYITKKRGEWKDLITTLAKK
# [23] = molecular target: T9, Sentrin-specific protease 8; format: functional; remark: listed apart in the source
smiles,measurement,setting,value
COCCn1nnnc1C(c1ccc(O)c(OC)c1)N1CCc2ccccc2C1 (stereo unspecified),EC50,cells [1],> 29.9 µM (inactive)
same,EC50,[2],0.695 µM (active)
same,IC50,[3],7.06 µM (active)
same,IC50,cells [4],> 29.9 µM (inactive)
same,IC50,[5],3.75 µM (active)
Cc1cc([N+](=O)[O-])cc(/C=N/n2c(C)nc3ccccc3c2=O)c1O,EC50,Streptococcus,7.71 µM (active)
same,EC50,[6],8.39 µM (active)
same,IC50,Albumin,> 94 µM (inactive)
Cc1ccc2nc(N3C(=O)C(O)=C(C(=O)c4ccco4)C3c3cccs3)sc2c1 (stereo unspecified),IC50,[7],> 67.5 µM (inactive)
same,EC50,[8],> 120 µM (not active)
same,EC50,[9],> 99 µM (inactive)
same,EC50,Streptococcus,4.98 µM (active)
same,EC50,[6],2.82 µM (active)
same,EC50,[10],> 120 µM (not active)
same,EC50,[11],> 99 µM (inactive)
same,EC50,H4,> 120 µM (not active)
same,IC50,cells [12],> 67.5 µM (inactive)
Cc1ccc(/C=C/C(=O)Nc2ccc([N+](=O)[O-])c(NC(=O)/C=C/c3ccc(C)o3)c2)o1,IC50,NS3,41.3 µM (not active)
same,IC50,[13],15.3 µM (active)
same,IC50,[14],165 µM (active)
same,IC50,Genome polyprotein,> 100 µM (active)
same,EC50,[15],228 µM (active)
same,IC50,[16],7.18 µM (active)
same,IC50,[17],5.89 µM (active)
same,IC50,[18],5.24 µM (active)
same,IC50,[3],2.12 µM (active)
same,IC50,[19],> 80 µM (inactive)
O=C(CSc1ccc(-c2ccncc2)nn1)c1ccc(Cl)cc1,IC50,[20],12.1 µM (active)
same,IC50,[21],> 66.6 µM (inactive)
C/C(=N/NC(=O)c1cccs1)c1cccc(N)c1,IC50,[7],> 67.6 µM (inactive)
same,IC50,cells [12],> 67.6 µM (inactive)
Cc1ccc(C2(C)NC(=O)N(CC(=O)Nc3ccc4[nH]c(=O)[nH]c4c3)C2=O)cc1 (stereo unspecified),IC50,[20],16.5 µM (active)
same,IC50,[21],> 66.6 µM (inactive)
O=C(CC1C(=O)NCCN1CCCc1ccccc1)NCCc1ccccc1F (stereo unspecified),EC50,cells [1],> 29.9 µM (inactive)
same,EC50,[2],1.71 µM (active)
same,IC50,cells [4],> 29.9 µM (inactive)
same,IC50,[5],7.17 µM (active)
CC1=NN(c2ccc(C)cc2C)C(=O)C1C(c1ccccc1O)C1C(=O)N(c2ccc(C)cc2C)N=C1C (stereo unspecified),IC50,[22],7.5 µM (active)
same,IC50,[23],18.9 µM (active)
COc1cccc(C2=NOC(C(=O)N3CCc4ccccc4C3)C2)c1 (stereo unspecified),IC50,[22],45.2 µM (active)
same,IC50,[23],9.21 µM (active)
